Converted amounts (≈) assume the structure as drawn.
Experiments:
[1] = Cytotoxicity against human MCF7 cells assessed as growth inhibition at 3 ug/ml after 48 hrs by MTT assay relative to control; format: cell-based; settings: read-out: GI
[2] = tested on: Mycobacterium tuberculosis; experiment: Antimycobacterial activity against dormant state of Mycobacterium tuberculosis H37Ra by two fold dilution method; format: functional
[3] = Selectivity index, ratio of GI90 for human HCT116 cells to MIC90 for dormant state of Mycobacterium tuberculosis H37Ra; format: toxicity; settings: read-out: Selectivity Index
Escherichia coli = experiment: Antibacterial activity against Escherichia coli ATCC […] after 8 hrs; format: functional
Pseudomonas fluorescens = experiment: Antibacterial activity against Pseudomonas fluorescens ATCC 13525 after 8 hrs; format: functional; settings: ATCC 13525, 8 h
Staphylococcus aureus = experiment: Antibacterial activity against Staphylococcus aureus ATCC 29213 after 12 hrs; format: functional; settings: ATCC 29213, 12 h
[4] = tested on: Mycobacterium tuberculosis; experiment: Antimycobacterial activity against dormant state of Mycobacterium tuberculosis H37Ra assessed as growth inhibition at 30 ug/ml after 12 days by XTT reduction menadione assay relative to control; format: functional; settings: 288 h, read-out: GI
[5] = Cytotoxicity against human A549 cells assessed as growth inhibition at 3 ug/ml after 48 hrs by MTT assay relative to control; format: cell-based; settings: read-out: GI
[6] = Cytotoxicity against human HCT116 cells assessed as growth inhibition at 30 ug/ml after 48 hrs by MTT assay relative to control; format: cell-based, HCT-116; settings: read-out: GI
[7] = Cytotoxicity against human A549 cells assessed as growth inhibition at 10 ug/ml after 48 hrs by MTT assay relative to control; format: cell-based; settings: read-out: GI
[8] = (§1) Cytotoxicity against human A549 cells assessed as growth inhibition after 48 hrs by MTT assay; format: cell-based; settings: A549 cells
A549 = experiment: as §1; format: cell-based; settings: a549, 48 h
[9] = Selectivity index, ratio of GI90 for human A549 cells to MIC90 for dormant state of Mycobacterium tuberculosis H37Ra; format: toxicity; settings: read-out: Selectivity Index
[10] = Cytotoxicity against human HCT116 cells assessed as growth inhibition at 10 ug/ml after 48 hrs by MTT assay relative to control; format: cell-based, HCT-116; settings: read-out: GI
[11] = Cytotoxicity against human HCT116 cells assessed as growth inhibition at 3 ug/ml after 48 hrs by MTT assay relative to control; format: cell-based, HCT-116; settings: read-out: GI
[12] = Selectivity index, ratio of GI90 for human A549 cells to MIC90 for dormant state of dormant state of Mycobacterium bovis BCG; format: toxicity; settings: read-out: Selectivity Index
[13] = Selectivity index, ratio of GI90 for human MCF7 cells to MIC90 for dormant state of dormant state of Mycobacterium bovis BCG; format: toxicity; settings: read-out: Selectivity Index
[14] = Cytotoxicity against human MCF7 cells assessed as growth inhibition at 30 ug/ml after 48 hrs by MTT assay relative to control; format: cell-based; settings: read-out: GI
[15] = Cytotoxicity against human A549 cells assessed as growth inhibition at 30 ug/ml after 48 hrs by MTT assay relative to control; format: cell-based; settings: read-out: GI
[16] = Selectivity index, ratio of GI90 for human MCF7 cells to MIC90 for dormant state of Mycobacterium tuberculosis H37Ra; format: toxicity; settings: read-out: Selectivity Index
[17] = tested on: Mycobacterium tuberculosis; experiment: Antimycobacterial activity against dormant state of Mycobacterium tuberculosis H37Ra assessed as growth inhibition at 3 ug/ml after 12 days by XTT reduction menadione assay relative to control; format: functional; settings: 288 h, read-out: GI
[18] = (§2) Cytotoxicity against human MCF7 cells assessed as growth inhibition after 48 hrs by MTT assay; format: cell-based; settings: MCF7 cells
MCF7 = experiment: as §2; format: cell-based; settings: mcf7, 48 h
Bacillus subtilis = experiment: Antibacterial activity against Bacillus subtilis ATCC 23857 after 12 hrs; format: functional; settings: ATCC 23857, 12 h
[19] = Cytotoxicity against human MCF7 cells assessed as growth inhibition at 10 ug/ml after 48 hrs by MTT assay relative to control; format: cell-based; settings: read-out: GI
HCT-116 = experiment: (§3) Cytotoxicity against human HCT116 cells assessed as growth inhibition after 48 hrs by MTT assay; format: cell-based; settings: hct-116, 48 h
[20] = as §3; format: cell-based, HCT-116; settings: HCT116 cells
[21] = Selectivity index, ratio of GI90 for human HCT116 cells to MIC90 for dormant state of dormant state of Mycobacterium bovis BCG; format: toxicity; settings: read-out: Selectivity Index
[22] = tested on: Mycobacterium tuberculosis; experiment: Antimycobacterial activity against dormant state of Mycobacterium tuberculosis H37Ra assessed as growth inhibition at 10 ug/ml after 12 days by XTT reduction menadione assay relative to control; format: functional; settings: 288 h, read-out: GI

Compound | inhibition at 48 h, 3 ug/ml [1] [%] | MIC50 [2] [µg/mL] | MIC90 [2] [µg/mL] | selectivity ratio [3] | MIC50 (Escherichia coli) [µg/mL] | MIC90 (Escherichia coli) [µg/mL] | MIC50 (Pseudomonas fluorescens) [µg/mL] | MIC90 (Pseudomonas fluorescens) [µg/mL] | MIC50 (Staphylococcus aureus) [µg/mL] | MIC90 (Staphylococcus aureus) [µg/mL] | inhibition of growth at 30 µg/mL [4] [%] | inhibition at 48 h, 3 ug/ml [5] [%] | inhibition at 48 h, 30 ug/ml [6] [%] | inhibition at 48 h, 10 ug/ml [7] [%] | GI50 at 48 h [8] [µg/mL] | GI90 (A549) [µg/mL] | GI50 at 48 h [18] [µg/mL] | GI90 (MCF7) [µg/mL] | GI90 (HCT-116) [µg/mL] | GI50 at 48 h [20] [µg/mL] | further results
COc1ccc2cc(/C=C3\CNC/C(=C\c4cc5ccc(OC)cc5nc4Cl)C3=O)c(Cl)nc2c1 | 28 | 2.8 (≈ 5.53 µM) | > 30 | > 3 | > 30 | > 30 | > 30 | > 30 | > 30 | > 30 | 65.6 | 3.8 | 67.7 | 29.8 | > 100 | > 100 | > 100 | > 100 | > 100 | > 100 | selectivity ratio [9]: > 3; inhibition at 48 h, 10 ug/ml [10]: 50.9%; inhibition at 48 h, 3 ug/ml [11]: 26.9%; selectivity ratio [12]: > 37; selectivity ratio [13]: > 37; inhibition at 48 h, 30 ug/ml [14]: 60.9%; inhibition at 48 h, 30 ug/ml [15]: 36.3%; selectivity ratio [16]: > 3; inhibition of growth at 3 µg/mL [17]: 50.9%; MIC50 (Bacillus subtilis): > 30 µg/mL; MIC90 (Bacillus subtilis): > 30 µg/mL; inhibition at 48 h, 10 ug/ml [19]: 52.1%; selectivity ratio [21]: > 37; inhibition of growth at 10 µg/mL [22]: 54.2%
Cc1ccc2cc(/C=C3\CNC/C(=C\c4cc5ccc(C)cc5nc4Cl)C3=O)c(Cl)nc2c1 | -3.4 | 8.7 (≈ 18.3 µM) | 25.5 (≈ 53.8 µM) |  | > 30 | > 30 | > 30 | > 30 | > 30 | > 30 | 98.3 | 5.4 | 33.8 | -16.9 | > 100 | > 100 | > 100 | > 100 | > 100 | > 100 | inhibition at 48 h, 10 ug/ml [10]: 30.9%; inhibition at 48 h, 3 ug/ml [11]: 29.7%; inhibition at 48 h, 30 ug/ml [14]: 15.7%; inhibition at 48 h, 30 ug/ml [15]: 0%; inhibition of growth at 3 µg/mL [17]: 5.8%; MIC50 (Bacillus subtilis): > 30 µg/mL; MIC90 (Bacillus subtilis): > 30 µg/mL; inhibition at 48 h, 10 ug/ml [19]: 10.1%; inhibition of growth at 10 µg/mL [22]: 61.2%
COc1ccc2cc(/C=C3\CN(C)C/C(=C\c4cc5ccc(OC)cc5nc4Cl)C3=O)c(Cl)nc2c1 | -13.4 | 2.3 (≈ 4.42 µM) | 7.8 (≈ 15 µM) | > 12 | > 30 | > 30 | > 30 | > 30 | > 30 | > 30 | 98.9 | 0 | 14.1 | 0 | > 100 | > 100 | > 100 | > 100 | > 100 | > 100 | selectivity ratio [9]: > 12; inhibition at 48 h, 10 ug/ml [10]: -1.3%; inhibition at 48 h, 3 ug/ml [11]: -8.6%; selectivity ratio [12]: > 10; selectivity ratio [13]: > 10; inhibition at 48 h, 30 ug/ml [14]: 44.1%; inhibition at 48 h, 30 ug/ml [15]: 0%; selectivity ratio [16]: > 12; inhibition of growth at 3 µg/mL [17]: 66.1%; MIC50 (Bacillus subtilis): > 30 µg/mL; MIC90 (Bacillus subtilis): > 30 µg/mL; inhibition at 48 h, 10 ug/ml [19]: -5.5%; selectivity ratio [21]: > 10; inhibition of growth at 10 µg/mL [22]: 100%
CN1C/C(=C\c2cc3ccccc3nc2Cl)C(=O)/C(=C/c2cc3ccccc3nc2Cl)C1 | 11.4 | 6.7 (≈ 14.6 µM) | 26.5 (≈ 57.6 µM) | > 3 | > 30 | > 30 | > 30 | > 30 | > 30 | > 30 | 98 | -14.6 | -20.1 | 0 | > 100 | > 100 | > 100 | > 100 | > 100 | > 100 | selectivity ratio [9]: > 3; inhibition at 48 h, 10 ug/ml [10]: -15.2%; inhibition at 48 h, 3 ug/ml [11]: -0.3%; selectivity ratio [12]: > 13; selectivity ratio [13]: > 13; inhibition at 48 h, 30 ug/ml [14]: 35.1%; inhibition at 48 h, 30 ug/ml [15]: -16.9%; selectivity ratio [16]: > 3; inhibition of growth at 3 µg/mL [17]: 15.6%; MIC50 (Bacillus subtilis): > 30 µg/mL; MIC90 (Bacillus subtilis): > 30 µg/mL; inhibition at 48 h, 10 ug/ml [19]: 24.3%; selectivity ratio [21]: > 13; inhibition of growth at 10 µg/mL [22]: 51.9%
O=C1/C(=C/c2cc3cc(F)ccc3nc2Cl)CNC/C1=C\c1cc2cc(F)ccc2nc1Cl | 40.9 | 13.7 (≈ 28.4 µM) | > 30 | > 3 | > 30 | > 30 | > 30 | > 30 | > 30 | > 30 | 76.9 | -5.8 | 55.8 | 0 | > 100 | > 100 | > 100 | > 100 | > 100 | 27.6 (≈ 57.1 µM) | selectivity ratio [9]: > 3; inhibition at 48 h, 10 ug/ml [10]: 45.3%; inhibition at 48 h, 3 ug/ml [11]: 35%; selectivity ratio [12]: > 10; selectivity ratio [13]: > 10; inhibition at 48 h, 30 ug/ml [14]: 48.5%; inhibition at 48 h, 30 ug/ml [15]: 0%; selectivity ratio [16]: > 3; inhibition of growth at 3 µg/mL [17]: 41.1%; MIC50 (Bacillus subtilis): > 30 µg/mL; MIC90 (Bacillus subtilis): > 30 µg/mL; inhibition at 48 h, 10 ug/ml [19]: 41.1%; selectivity ratio [21]: > 10; inhibition of growth at 10 µg/mL [22]: 49%
CO[C@H]1/C=C/O[C@@]2(C)Oc3c(C)c(O)c4c(O)c(c(/C=N/N5CCN(C)CC5)c(O)c4c3C2=O)NC(=O)/C(C)=C\C=C\[C@H](C)[C@H](O)[C@@H](C)[C@@H](O)[C@@H](C)[C@H](OC(C)=O)[C@@H]1C [RIFAMPIN] |  | 0.0019 (≈ 0.00231 µM) | 0.02 (≈ 0.0243 µM) | > 133 |  |  |  |  |  |  |  |  |  |  | > 100 | > 100 | > 100 | > 100 | > 100 | > 100 | selectivity ratio [9]: > 133; selectivity ratio [12]: > 123; selectivity ratio [13]: > 123; selectivity ratio [16]: > 133; selectivity ratio [21]: > 123
